“Also recorded” adds a separate entry of the source.
Key:
Type in all cases: physicochemical
[1] = Dynamic vapour sorption (DVS) with post-DVS XRPD; conditions: for form of recovered solid by post-DVS XRPD: after DVS cycles
Description: Approximately, 10-20 mg of sample was placed into a mesh vapour sorption balance pan and loaded into a DVS Intrinsic dynamic vapour sorption balance by Surface Measurement Systems. The sample was subjected to a ramping profile from 40-90% relative humidity (RH) at 10% increments, maintaining the sample at each step until a stable weight had been achieved (dm/dt 0.004%, minimum step length 30 minutes, maximum step length 500 minutes) at 25° C. After completion of the sorption cycle, the sample was dried using the same procedure to 0% RH and then a second sorption cycle back to 40% RH. Two cycles were performed. The weight change during the sorption/desorption cycles were plotted, allowing for the hygroscopic nature of the sample to be determined. XRPD analysis was then carried out on any solid retained.

[2] = 7 Day Stability Assessment (XRPD form and HPLC purity after storage); conditions: diacetate; for one-week stability: form by XRPD: 1 week (Form 1: 2 and 7 days)
Description: (§1) 25.6 mL of 2-propanol was added to the lyophilized Compound A diacetate salt to form a slurry. The slurry was then temperature cycled between ambient and 40° C. in 4 hour cycles with agitation for ca. 24 hours. The slurry was then filtered and the isolated solids collected into a scintillation vial. A subsample was analyzed by XRPD and the vial was left uncapped to allow the solids to […] at ambient for ca. 24 hours. The material was then re-analyzed by XRPD post-drying and fully characterized using the following techniques: TG/DSC, DSC, DVS with post-DVS XRPD analysis, PLM, FT-IR, ^1H NMR, Purity by HPLC, TG/DSC with post TG/DSC XRPD analysis, and 7 Day Stability Assessment (ca. 10 mg of the material was stored at 40° C./75% RH. 80° C. and ambient light and humidity for 1 week. The solids were then analyzed by XRPD and purity obtained by HPLC). Thermodynamic solubility in water and a pH 7.4 phosphate buffer (The appropriate media was added in 100 μL aliquots to ca. 20 mg of the material to form a slurry. The samples were then sealed and agitated at ambient for ca. 24 hours before being centrifuge filtered. The isolated solids were analyzed by XRPD and the concentration of the mother liquors determined by HPLC).

[3] = Thermodynamic solubility in water and a pH 7.4 phosphate buffer; conditions: slurry agitated at ambient ca. 24 hours, HPLC, diacetate
Description: as §1
The material appears highly insoluble in the phosphate buffer with all Forms having a solubility of 0.3 mg/mL except from Form 2 which has a solubility of 0.2 mg/mL.

[4] = Variable humidity X-ray powder diffraction (VH-XRPD); conditions: 30° C.
Description: XRPD analysis was carried out on a Philips X'Pert Pro Multipurpose diffractometer equipped with a humidity chamber. The samples were scanned between 4 and 36 °2θ using Cu K radiation (α1=1.54060 A; α2=1.54443 A; β=1.39225 A; α1:α2 ratio=0.5) running in Bragg-Brentano geometry (step size 0.008 °2θ) using 40 kV/40 mA generator settings. Measurements were performed at 30° C. during the humidity profile described below: • Initial scan at 40% RH • Humidity increased to 90% RH for 105 minutes (scan after 5 and 105 minutes) • Humidity decreased to 40% RH for 10 minutes (scan after 5 minutes) • Humidity decreased to 5% RH for 60 minutes (scan taken after 60 minutes) • Humidity decreased to 0% RH for 17 hours (scan taken after 17 hours) • Humidity increased to 40% RH for 60 minutes (scan taken at 30 and 60 minutes) • Humidity increased to 60% RH for 105 minutes (scan taken at 5 and 105 minutes) • Humidity increased to 80% RH for 60 minutes (scan taken at 5 and 55 minutes)

[5] = ambient temperature and humidity

Row | SMILES | mass uptake at 90% RH ([1]; DVS, 25° C., 90% RH, diacetate) | hygroscopicity by DVS ([1]; DVS, 25° C., diacetate) | form of recovered solid by post-DVS XRPD ([1]; 25° C., diacetate) | weight loss on dehydration during DVS ([1]; below 10% RH, 25° C.) | weight increase on form change during DVS ([1]; first sorption cycle at 80% RH, 25° C.) | form change during DVS ([1]; first sorption cycle at 80% RH, 25° C., diacetate) | one-week stability: form by XRPD ([2]; 40° C./75% RH) | one-week stability: form by XRPD ([2]; 80° C.) | one-week stability: form by XRPD [2, 5] | 1 Week Stability ([2]; form by XRPD after storage at 40° C./75% RH, ambient or 80° C.) | solubility ([3]; Water) | solubility ([3]; pH 7.4 Phosphate Buffer) | form by VH-XRPD ([4]; 90% RH) | form by VH-XRPD ([4]; drying at 0% RH) | form conversion during DVS ([1]; at 50% RH, 25° C., diacetate) | weight loss on form conversion during DVS ([1]; at 50% RH, 25° C., diacetate) | DVS mass increase ([1]; at 90% RH, diacetate)
1 | CC(=O)O.CC(=O)O.N=C(N)c1ccc(OCCCCCOc2ccc(C(=N)N)nc2)cc1 [Form 9, 5-((5-(4-carbamimidoylphenoxy)pentyl)oxy)picolinimidamide diacetate] | 8% | hygroscopic | mixture of phases with peaks matching Form 9 and new peaks | 7.3 wt. % | 5.2 wt. % | form change to Form 2; also recorded: convert to Form 2 | remained unchanged by XRPD | convert to Form 1 | remained unchanged by XRPD | Converts to pattern 1 at 80 °C | 44.0 mg/mL | 0.3 mg/mL | convert to Form 2 | becomes poorly crystalline |  |  | 
2 | CC(=O)O.CC(=O)O.N=C(N)c1ccc(OCCCCCOc2ccc(C(=N)N)nc2)cc1 [Form 8, 5-((5-(4-carbamimidoylphenoxy)pentyl)oxy)picolinimidamide diacetate] |  |  | conversion of Form 8 to Form 1 |  |  |  | convert to Form 1 | no change in form | convert to Form 1; also recorded: partial conversion to Form 1 |  | 38.7 mg/mL | 0.3 mg/mL |  |  | desolvate and convert to Form 1 | 8.2 wt. % | hygroscopic with a 1.6% mass

Reference: patent US20260274798A1, “PENTAMIDINE ANALOGUE POLYMORPHS, FORMULATIONS, AND METHODS THEREOF” (AURANSA INC., priority 2023, published 2026)
